Measurements taken from ChEMBL document CHEMBL4421728, “Bach1 Inhibitors in Combination with Nrf2 Activators and Pharmaceutical Compositions Thereof” (2017).

Tests used:
[1] = biological target: T1, Transcription regulator protein BACH1 (Homo sapiens) (UniProt O14867); experiment: Inhibition of Bach1 in normal human lung fibroblasts assessed as induction of HMOX protein expression at 0.019 uM incubated for 16 to 18 hrs in presence of 0.0097 uM Nrf2 activator Bardoxolone methyl by immunostaining relative to control
T1 sequence (whole entry): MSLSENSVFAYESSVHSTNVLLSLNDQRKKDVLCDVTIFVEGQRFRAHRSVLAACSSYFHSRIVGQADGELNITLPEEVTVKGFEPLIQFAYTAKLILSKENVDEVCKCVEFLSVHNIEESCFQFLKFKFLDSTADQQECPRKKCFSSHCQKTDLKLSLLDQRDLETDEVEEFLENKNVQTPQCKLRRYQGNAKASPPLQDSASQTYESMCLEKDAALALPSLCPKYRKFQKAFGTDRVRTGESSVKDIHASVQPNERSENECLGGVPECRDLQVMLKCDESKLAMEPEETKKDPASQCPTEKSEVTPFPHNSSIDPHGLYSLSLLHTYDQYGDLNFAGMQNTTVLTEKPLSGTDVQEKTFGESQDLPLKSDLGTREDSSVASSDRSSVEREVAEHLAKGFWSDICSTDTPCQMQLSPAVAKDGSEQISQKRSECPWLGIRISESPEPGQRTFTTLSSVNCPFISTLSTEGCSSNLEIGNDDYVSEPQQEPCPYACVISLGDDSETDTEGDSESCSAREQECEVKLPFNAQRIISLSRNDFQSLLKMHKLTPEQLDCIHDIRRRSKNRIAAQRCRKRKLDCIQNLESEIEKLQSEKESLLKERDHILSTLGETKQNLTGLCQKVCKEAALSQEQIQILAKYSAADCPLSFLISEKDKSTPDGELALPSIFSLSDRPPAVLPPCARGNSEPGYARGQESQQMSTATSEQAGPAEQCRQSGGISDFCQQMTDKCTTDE

[2] = biological target: T1, Transcription regulator protein BACH1 (Homo sapiens); experiment: Inhibition of Bach1 in normal human lung fibroblasts assessed as induction of HMOX protein expression at 0.625 uM incubated for 16 to 18 hrs in presence of 0.312 uM Nrf2 activator Bardoxolone methyl by immunostaining relative to control
[3] = biological target: T1, Transcription regulator protein BACH1 (Homo sapiens); experiment: Inhibition of Bach1 in normal human lung fibroblasts assessed as induction of HMOX protein expression at 0.312 uM incubated for 16 to 18 hrs by immunostaining relative to control
[4] = biological target: T1, Transcription regulator protein BACH1 (Homo sapiens); experiment: Inhibition of Bach1 in normal human lung fibroblasts assessed as induction of HMOX protein expression at 0.078 uM incubated for 16 to 18 hrs in presence of 0.156 uM Nrf2 activator Bardoxolone methyl by immunostaining relative to control
[5] = biological target: T1, Transcription regulator protein BACH1 (Homo sapiens); experiment: Inhibition of Bach1 in normal human lung fibroblasts assessed as induction of HMOX protein expression at 0.625 uM incubated for 16 to 18 hrs in presence of 0.156 uM Nrf2 activator Bardoxolone methyl by immunostaining relative to control
[6] = biological target: T1, Transcription regulator protein BACH1 (Homo sapiens); experiment: Inhibition of Bach1 in normal human lung fibroblasts assessed as induction of HMOX protein expression at 0.039 uM incubated for 16 to 18 hrs in presence of 0.156 uM Nrf2 activator Bardoxolone methyl by immunostaining relative to control
[7] = biological target: T1, Transcription regulator protein BACH1 (Homo sapiens); experiment: Inhibition of Bach1 in normal human lung fibroblasts assessed as induction of HMOX protein expression at 0.019 uM incubated for 16 to 18 hrs in presence of 0.0024 uM Nrf2 activator Bardoxolone methyl by immunostaining relative to control
[8] = biological target: T1, Transcription regulator protein BACH1 (Homo sapiens); experiment: Inhibition of Bach1 in normal human lung fibroblasts assessed as induction of HMOX protein expression at 0.625 uM incubated for 16 to 18 hrs in presence of 0.0048 uM Nrf2 activator Bardoxolone methyl by immunostaining relative to control
[9] = biological target: T1, Transcription regulator protein BACH1 (Homo sapiens); experiment: Inhibition of Bach1 in normal human lung fibroblasts assessed as induction of HMOX protein expression at 0.156 uM incubated for 16 to 18 hrs in presence of 0.312 uM Nrf2 activator Bardoxolone methyl by immunostaining relative to control
[10] = biological target: T1, Transcription regulator protein BACH1 (Homo sapiens); experiment: Inhibition of Bach1 in normal human lung fibroblasts assessed as induction of HMOX protein expression at 0.156 uM incubated for 16 to 18 hrs in presence of 0.039 uM Nrf2 activator Bardoxolone methyl by immunostaining relative to control
[11] = biological target: T1, Transcription regulator protein BACH1 (Homo sapiens); experiment: Inhibition of Bach1 in normal human lung fibroblasts assessed as induction of HMOX protein expression at 0.019 uM incubated for 16 to 18 hrs in presence of 0.312 uM Nrf2 activator Bardoxolone methyl by immunostaining relative to control
[12] = biological target: T1, Transcription regulator protein BACH1 (Homo sapiens); experiment: Inhibition of Bach1 in normal human lung fibroblasts assessed as induction of HMOX protein expression at 1.25 uM incubated for 16 to 18 hrs in presence of 0.0024 uM Nrf2 activator Bardoxolone methyl by immunostaining relative to control
[13] = biological target: T1, Transcription regulator protein BACH1 (Homo sapiens); experiment: Inhibition of Bach1 in normal human lung fibroblasts assessed as induction of HMOX protein expression at 0.156 uM incubated for 16 to 18 hrs in presence of 0.0024 uM Nrf2 activator Bardoxolone methyl by immunostaining relative to control
[14] = biological target: T1, Transcription regulator protein BACH1 (Homo sapiens); experiment: Inhibition of Bach1 in normal human lung fibroblasts assessed as induction of HMOX protein expression at 2.5 uM incubated for 16 to 18 hrs in presence of 0.0097 uM Nrf2 activator Bardoxolone methyl by immunostaining relative to control
[15] = biological target: T1, Transcription regulator protein BACH1 (Homo sapiens); experiment: Inhibition of Bach1 in normal human lung fibroblasts assessed as induction of HMOX protein expression at 2.5 uM incubated for 16 to 18 hrs in presence of 0.078 uM Nrf2 activator Bardoxolone methyl by immunostaining relative to control
[16] = biological target: T1, Transcription regulator protein BACH1 (Homo sapiens); experiment: Inhibition of Bach1 in normal human lung fibroblasts assessed as induction of HMOX protein expression at 0.078 uM incubated for 16 to 18 hrs in presence of 0.039 uM Nrf2 activator Bardoxolone methyl by immunostaining relative to control
[17] = biological target: T1, Transcription regulator protein BACH1 (Homo sapiens); experiment: Inhibition of Bach1 in normal human lung fibroblasts assessed as induction of HMOX protein expression at 0.312 uM incubated for 16 to 18 hrs in presence of 0.0024 uM Nrf2 activator Bardoxolone methyl by immunostaining relative to control
[18] = biological target: T1, Transcription regulator protein BACH1 (Homo sapiens); experiment: Inhibition of Bach1 in normal human lung fibroblasts assessed as induction of HMOX protein expression at 2.5 uM incubated for 16 to 18 hrs by immunostaining relative to control
[19] = biological target: T1, Transcription regulator protein BACH1 (Homo sapiens); experiment: Inhibition of Bach1 in normal human lung fibroblasts assessed as induction of HMOX protein expression at 0.078 uM incubated for 16 to 18 hrs in presence of 0.078 uM Nrf2 activator Bardoxolone methyl by immunostaining relative to control
[20] = biological target: T1, Transcription regulator protein BACH1 (Homo sapiens); experiment: Inhibition of Bach1 in normal human lung fibroblasts assessed as induction of HMOX protein expression at 0.312 uM incubated for 16 to 18 hrs in presence of 0.039 uM Nrf2 activator Bardoxolone methyl by immunostaining relative to control
[21] = biological target: T1, Transcription regulator protein BACH1 (Homo sapiens); experiment: Inhibition of Bach1 in normal human lung fibroblasts assessed as induction of HMOX protein expression at 0.019 uM incubated for 16 to 18 hrs in presence of 0.039 uM Nrf2 activator Bardoxolone methyl by immunostaining relative to control

For `CNC(=O)c1ccc2c(c1)nc(Nc1nc3ccc(OC(F)(F)F)cc3s1)n2C`, which fold change (FC) [1] is on record?
The fold change (FC) was 7.14.

And the fold change (FC) [2]?
The fold change (FC) was 12.7.

And the fold change (FC) [3]?
Its fold change (FC) is 9.82.

And the fold change (FC) [4]?
The fold change (FC) was 17.9.

What about the fold change (FC) [5] of the same compound?
The fold change (FC) was 18.7.

What about the fold change (FC) [6] of the same compound?
Its fold change (FC) is 17.2.

And the fold change (FC) [7]?
The fold change (FC) was 3.24.

And the fold change (FC) [8]?
Its fold change (FC) is 17.1.

What about the fold change (FC) [9] of the same compound?
The fold change (FC) was 16.

And the fold change (FC) [10]?
The fold change (FC) was 17.6.

And the fold change (FC) [11]?
The fold change (FC) was 17.2.

And the fold change (FC) [12]?
The fold change (FC) was 16.1.

And the fold change (FC) [13]?
Its fold change (FC) is 7.32.

And the fold change (FC) [14]?
Its fold change (FC) is 19.4.

What about the fold change (FC) [15] of the same compound?
The fold change (FC) was 14.3.

And the fold change (FC) [16]?
The fold change (FC) was 17.8.

What about the fold change (FC) [17] of the same compound?
Its fold change (FC) is 11.7.

What about the fold change (FC) [18] of the same compound?
The fold change (FC) was 17.5.

And the fold change (FC) [19]?
The fold change (FC) was 19.5.

And the fold change (FC) [20]?
Its fold change (FC) is 19.6.

What about the fold change (FC) [21] of the same compound?
Its fold change (FC) is 15.9.
